In patent US9149038B2, “4-amino-6-(heterocyclic)picolinates and 6-amino-2-(heterocyclic)pyrimidine-4-carboxylates and their use as herbicides” (Dow AgroSciences LLC, priority 2013, dated 2015):
Where two headings read alike, the source gives them in different places.

Legend:
[1] = test system: Key Grass and Sedge Weeds as well as Grass Crops; assay: Post-Emergent Test II: postemergent herbicidal activity, visual rating after 14 d (Table 8); assay type: in vivo; details: post-emergence, 336 h; for pest or weed control at 35 g/ha: 35 g ai/ha; for pest or weed control at 70 g/ha: 70 g ai/ha; for pest or weed control at 140 g/ha: 140 g ai/ha
Outline: (§1)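 Greenhouse plants at first or second true leaf stage sprayed with compound in acetone/DMSO-based spray solution with crop oil concentrate and Triton X-155 at 187 L/ha, tested at highest rate and ½× to 1/16× dilutions; solvent blank controls. Injury rated visually 0–100% versus untreated plants after 14 d.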

[2] = test system: Key Broadleaf Weed and Crop Species; assay: Post-Emergent Test II: postemergent herbicidal activity, visual rating after 14 d (Table 7); assay type: in vivo; details: post-emergence, 336 h; for pest or weed control at 35 g/ha: 35 g ai/ha; for pest or weed control at 70 g/ha: 70 g ai/ha; for pest or weed control at 140 g/ha: 140 g ai/ha
Outline: as §1

[3] = barnyardgrass (Echinochloa crus-galli), read-out: Visual Growth Reduction (%) 14 Days After Application ECHCG
[4] = giant foxtail (Setaria faberi), read-out: Visual Growth Reduction (%) 14 Days After Application SETFA
[5] = maize, corn (Zea mays), read-out: Visual Growth Reduction (%) 14 Days After Application ZEAMX
[6] = rice (Oryza sativa), read-out: Visual Growth Reduction (%) 14 Days After Application ORYSA
[7] = wheat, spring (Triticum aestivum), read-out: Visual Growth Reduction (%) 14 Days After Application TRZAS
[8] = yellow nutsedge (Cyperus esculentus), read-out: Visual Growth Reduction (%) 14 Days After Application CYPES
[9] = lambsquarters (Chenopodium album), read-out: Visual Growth Reduction (%) 14 Days After Application CHEAL
[10] = oilseed rape, canola (Brassica napus), read-out: Visual Growth Reduction (%) 14 Days After Application BRSNN
[11] = redroot pigweed (Amaranthus retroflexus), read-out: Visual Growth Reduction (%) 14 Days After Application AMARE
[12] = sunflower (Helianthus annuus), read-out: Visual Growth Reduction (%) 14 Days After Application HELAN
[13] = velvetleaf (Abutilon theophrasti), read-out: Visual Growth Reduction (%) 14 Days After Application ABUTH
[14] = wild poinsettia (Euphorbia heterophylla), read-out: Visual Growth Reduction (%) 14 Days After Application EPHHL

SMILES: COC(=O)c1nc(-c2cc3c(cc2F)OCO3)nc(N)c1OC [Compound 69]
- pest or weed control at 35 g/ha [1, 3]: 0 to 29%
- pest or weed control at 70 g/ha [1, 3]: 0 to 29%
- pest or weed control at 140 g/ha [1, 3]: 0 to 29%
- pest or weed control at 35 g/ha [1, 4]: 0 to 29%
- pest or weed control at 70 g/ha [1, 4]: 0 to 29%
- pest or weed control at 140 g/ha [1, 4]: 0 to 29%
- pest or weed control at 35 g/ha [1, 5]: 0 to 29%
- pest or weed control at 70 g/ha [1, 5]: 0 to 29%
- pest or weed control at 140 g/ha [1, 5]: 0 to 29%
- pest or weed control at 35 g/ha [1, 6]: 0 to 29%
- pest or weed control at 70 g/ha [1, 6]: 0 to 29%
- pest or weed control at 140 g/ha [1, 6]: 0 to 29%
- pest or weed control at 35 g/ha [1, 7]: 0 to 29%
- pest or weed control at 70 g/ha [1, 7]: 0 to 29%
- pest or weed control at 140 g/ha [1, 7]: 0 to 29%
- pest or weed control at 35 g/ha [1, 8]: 0 to 29%
- pest or weed control at 70 g/ha [1, 8]: 0 to 29%
- pest or weed control at 140 g/ha [1, 8]: 0 to 29%
- pest or weed control at 35 g/ha [2, 9]: 0 to 29%
- pest or weed control at 70 g/ha [2, 9]: 0 to 29%
- pest or weed control at 140 g/ha [2, 9]: 0 to 29%
- pest or weed control at 35 g/ha [2, 10]: 75 to 84%
- pest or weed control at 70 g/ha [2, 10]: 75 to 84%
- pest or weed control at 140 g/ha [2, 10]: 95 to 100%
- pest or weed control at 35 g/ha [2, 11]: 0 to 29%
- pest or weed control at 70 g/ha [2, 11]: 0 to 29%
- pest or weed control at 140 g/ha [2, 11]: 0 to 29%
- pest or weed control at 35 g/ha [2, 12]: 0 to 29%
- pest or weed control at 70 g/ha [2, 12]: 45 to 59%
- pest or weed control at 140 g/ha [2, 12]: 60 to 74%
- pest or weed control at 35 g/ha [2, 13]: 0 to 29%
- pest or weed control at 70 g/ha [2, 13]: 0 to 29%
- pest or weed control at 140 g/ha [2, 13]: 0 to 29%
- pest or weed control at 35 g/ha [2, 14]: 0 to 29%
- pest or weed control at 70 g/ha [2, 14]: 60 to 74%
- pest or weed control at 140 g/ha [2, 14]: 75 to 84%
